In patent US7932255B2, “2-aminocarbonyl substituted piperazine or diaza-cyclic compounds as apoptosis protein inhibitors (lap) modulators” (Novartis AG, priority 2006, dated 2011):
Where no end group is shown, it is not given here.

Test system: GST-BIR3 fusion protein
Test: FMAT Smac peptide / GST-BIR3 competition assay
Format: binding
Conditions: competing GST-BIR3 off the FMAT beads; read-out: IC50 for non-biotinylated Smac (FMAT)
Protocol: In order to measure the ability of the inventive compounds to bind the BIR3 peptide binding pocket, a solution phase assay on the FMAT or ELISA technology platform is utilized.
Biotinylated Smac 7-mer peptide (AVPIAQK, lysine ε-amino group is biotinylated) is immobilized on streptavidin coated beads. GST-BIR3 fusion protein is precipitated with FMAT beads and is detected using fluorescent tagged anti-GST antibodies. […] The IC50 for non-biotinylated Smac is 400 nM.

Row | IC50 [µM] | Compound
1 | 0.4 | AVPIAQK [non-biotinylated Smac]

Molecular target: T1, XIAP (Homo sapiens, UniProt P98170)
T1 construct: GST
Test: Disruption of the Smac peptide-(XIAP)BIR3 protein-protein interaction (Tables 2 and 3)
Format: binding
Conditions: Series A compounds, Table 2; read-out: XIAP IC50
Procedure, shortened: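 Compounds compete with immobilized Smac peptide for the XIAP BIR3 pocket. Percent inhibition at 4 concentrations (usually 3- or 10-fold series from 10 μM); IC50 by logarithmic regression, normalized to an average reference-inhibitor IC50.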

T1 sequence (P98170 248-358 limits assumed, species assumed): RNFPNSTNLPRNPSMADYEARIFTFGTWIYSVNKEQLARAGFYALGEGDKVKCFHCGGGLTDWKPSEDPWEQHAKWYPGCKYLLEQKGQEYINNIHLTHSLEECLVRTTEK

Row | IC50 [µM] | Compound
2 | < 10 | CN[C@@H](C)C(=O)N[C@H](C(=O)N1CCN(S(=O)(=O)c2sccc2-c2ccno2)C[C@H]1C(=O)NC1CCCc2ccccc21)C(C)C (stereo partly drawn) [Compound 42, (S)-4-(3-Isoxazol-5-yl-thiophene-2-sulfonyl)-1-[(S)-3-methyl-2-((S)-2-methylamino-propionylamino)-butyryl]-piperazine-2-carboxylic acid (1,2,3,4-tetrahydro-naphthalen-1-yl)-amide]
3 | < 10 | CN[C@@H](C)C(=O)N[C@H](C(=O)N1CCN(CC(C)C)C[C@H]1C(=O)NC1CCCc2ccccc21)C(C)C (stereo partly drawn) [Compound 8, (S)-4-Isobutyl-1-[(S)-3-methyl-2-((S)-2-methylamino-propionylamino)-butyryl]-piperazine-2-carboxylic acid (1,2,3,4-tetrahydro-naphthalen-1-yl)-amide]
4 | < 10 | CN[C@@H](C)C(=O)N[C@H](C(=O)N1CCN(Cc2ccccc2)C[C@H]1C(=O)NC1CCCc2ccccc21)C(C)C (stereo partly drawn) [Compound 54, (S)-4-Benzyl-1-[(S)-3-methyl-2-((S)-2-methylamino-propionylamino)-butyryl]-piperazine-2-carboxylic acid (1,2,3,4-tetrahydro-naphthalen-1-yl)-amide]
5 | < 10 | CN[C@@H](C)C(=O)N[C@H](C(=O)N1CCN(Cc2cccnc2)C[C@H]1C(=O)NC1CCCc2ccccc21)C(C)C (stereo partly drawn) [Compound 3, (S)-1-[(S)-3-Methyl-2-((S)-2-methylamino-propionylamino)-butyryl]-4-pyridin-3-ylmethyl-piperazine-2-carboxylic acid (1,2,3,4-tetrahydro-naphthalen-1-yl)-amide]
6 | < 10 | CCCCN1CCN(C(=O)[C@@H](NC(=O)[C@H](C)NC)C(C)C)[C@H](C(=O)NC2CCCc3ccccc32)C1 (stereo partly drawn) [Compound 33, (S)-4-Butyl-1-[(S)-3-methyl-2-((S)-2-methylamino-propionylamino)-butyryl]-piperazine-2-carboxylic acid (1,2,3,4-tetrahydro-naphthalen-1-yl)-amide]
7 | < 10 | CCCN1CCN(C(=O)[C@@H](NC(=O)[C@H](C)NC)C(C)C)[C@H](C(=O)NC2CCCc3ccccc32)C1 (stereo partly drawn) [Compound 25, (S)-1-[(S)-3-Methyl-2-((S)-2-methylamino-propionylamino)-butyryl]-4-propyl-piperazine-2-carboxylic acid (1,2,3,4-tetrahydro-naphthalen-1-yl)-amide]
8 | < 10 | CN[C@@H](C)C(=O)N[C@H](C(=O)N1CCN(C(=O)NC2CCCC2)C[C@H]1C(=O)NC1CCCc2ccccc21)C(C)C (stereo partly drawn) [Compound 28, (S)-4-[(S)-3-Methyl-2-((S)-2-methylamino-propionylamino)-butyryl]-piperazine-1,3-dicarboxylic acid 1-cyclopentylamide 3-[(1,2,3,4-tetrahydro-naphthalen-1-yl)-amide]]
9 | < 10 | CN[C@@H](C)C(=O)N[C@H](C(=O)N1CCN(S(C)(=O)=O)C[C@H]1C(=O)NC1CCCc2ccccc21)C(C)C (stereo partly drawn) [Compound 30, (S)-4-Methanesulfonyl-1-[(S)-3-methyl-2-((S)-2-methylamino-propionylamino)-butyryl]-piperazine-2-carboxylic acid (1,2,3,4-tetrahydro-naphthalen-1-yl)-amide]
10 | < 10 | 4-Benzyl-1-[3-methyl-2-(2-methylamino-propionylamino)-butyryl]-piperazine-2-carboxylic acid (1,2,3,4-tetrahydro-naphthalen-1-yl)-amide [Compound 1]
11 | < 10 | CN[C@@H](C)C(=O)N[C@H](C(=O)N1CCN(C(=O)NCc2ccccc2)C[C@H]1C(=O)NC1CCCc2ccccc21)C(C)C (stereo partly drawn) [Compound 5, (S)-4-[(S)-3-Methyl-2-((S)-2-methylamino-propionylamino)-butyryl]-piperazine-1,3-dicarboxylic acid 1-benzylamide 3-[(1,2,3,4-tetrahydro-naphthalen-1-yl)-amide]]
12 | < 10 | CN[C@@H](C)C(=O)N[C@H](C(=O)N1CCN(Cc2ccncc2)C[C@H]1C(=O)NC1CCCc2ccccc21)C(C)C (stereo partly drawn) [Compound 9, (S)-1-[(S)-3-Methyl-2-((S)-2-methylamino-propionylamino)-butyryl]-4-pyridin-4-ylmethyl-piperazine-2-carboxylic acid (1,2,3,4-tetrahydro-naphthalen-1-yl)-amide]
13 | > 10 | CC(C)[C@H](NC(=O)[C@H](C)N(C)C(=O)OC(C)(C)C)C(=O)N1CCN(Cc2ccccc2)C[C@H]1C(=O)N[C@@H]1CCCc2ccccc21 [Compound 57, [(S)-1-((S)-1-{(S)-4-Benzyl-2-[(R)-(1,2,3,4-tetrahydro-naphthalen-1-yl)carbamoyl]-piperazine-1-carbonyl}-2-methyl-propylcarbamoyl)-ethyl]-methyl-carbamic acid tert-butyl ester]
14 | < 10 | CN[C@@H](C)C(=O)N[C@H](C(=O)N1CCN(CC2CCCCC2)C[C@H]1C(=O)NC1CCCc2ccccc21)C(C)C (stereo partly drawn) [Compound 19, (S)-4-Cyclohexylmethyl-1-[(S)-3-methyl-2-((S)-2-methylamino-propionylamino)-butyryl]-piperazine-2-carboxylic acid (1,2,3,4-tetrahydro-naphthalen-1-yl)-amide]
15 | < 10 | CN[C@@H](C)C(=O)N[C@H](C(=O)N1CCN(Cc2cccc(OC)c2)C[C@H]1C(=O)NC1CCCc2ccccc21)C(C)C (stereo partly drawn) [Compound 29, (S)-4-(3-Methoxy-benzyl)-1-[(S)-3-methyl-2-((S)-2-methylamino-propionylamino)-butyryl]-piperazine-2-carboxylic acid (1,2,3,4-tetrahydro-naphthalen-1-yl)-amide]

Same assay, conditions: Series B compounds, Table 3; read-out: XIXP IC50

Row | IC50 [µM] | Compound
16 | < 10 | CN[C@@H](C)C(=O)N[C@H](C(=O)N1CCN(Cc2ccccc2)C[C@H]1C(=O)NCc1cc(F)cc(F)c1)C(C)C [Compound 84, (S)-4-Benzyl-1-[(S)-3-methyl-2-((S)-2-methylamino-propionylamino)-butyryl]-piperazine-2-carboxylic acid 3,5-difluoro-benzylamide]
17 | > 10 | CN[C@@H](C)C(=O)N[C@H](C(=O)N1CCN(Cc2ccccc2)C[C@H]1C(=O)NCCC(C)C)C(C)C [Compound 83, (S)-4-Benzyl-1-[(S)-3-methyl-2-((S)-2-methylamino-propionylamino)-butyryl]-piperazine-2-carboxylic acid (3-methyl-butyl)-amide]
18 | > 10 | CN[C@@H](C)C(=O)N[C@H](C(=O)N1CCN(Cc2ccccc2)C[C@H]1C(=O)NCCc1ccncc1)C(C)C [Compound 69, (S)-4-Benzyl-1-[(S)-3-methyl-2-((S)-2-methylamino-propionylamino)-butyryl]-piperazine-2-carboxylic acid (2-pyridin-4-yl-ethyl)-amide]
19 | < 10 | CN[C@@H](C)C(=O)N[C@H](C(=O)N1CCN(Cc2ccccc2)C[C@H]1C(=O)NCCc1ccc(F)cc1)C(C)C [Compound 71, (S)-4-Benzyl-1-[(S)-3-methyl-2-((S)-2-methylamino-propionylamino)-butyryl]-piperazine-2-carboxylic acid [2-(4-fluoro-phenyl)-ethyl]-amide]
20 | < 10 | CN[C@@H](C)C(=O)N[C@H](C(=O)N1CCN(Cc2ccccc2)C[C@H]1C(=O)NCc1ccc(F)cc1)C(C)C [Compound 70, (S)-4-Benzyl-1-[(S)-3-methyl-2-((S)-2-methylamino-propionylamino)-butyryl]-piperazine-2-carboxylic acid 4-fluoro-benzylamide]
21 | < 10 | CN[C@@H](C)C(=O)N[C@H](C(=O)N1CCN(Cc2ccccc2)C[C@H]1C(=O)NCCc1ccccc1)C(C)C [Compound 61, (S)-4-Benzyl-1-[(S)-3-methyl-2-((S)-2-methylamino-propionylamino)-butyryl]-piperazine-2-carboxylic acid phenethyl-amide]
22 | > 10 | CN[C@@H](C)C(=O)N[C@H](C(=O)N1CCN(Cc2ccccc2)C[C@H]1C(=O)NCc1nccs1)C(C)C [Compound 73, (S)-4-Benzyl-1-[(S)-3-methyl-2-((S)-2-methylamino-propionylamino)-butyryl]-piperazine-2-carboxylic acid (thiazol-2-ylmethyl)-amide]
